# According to US8119629B2, “Carboxamide GABAA α2 modulators” (Bristol-Meyers Squibb Company, priority 2007, dated 2012):
# Structures can show the parent of a compound that is named as a salt.
# Biological target: T1, rat GABAA α2β2γ2 Receptors (Rattus norvegicus, UniProt P23576)
# T1 construct: expressed in transfected cells; pIRES Neo2 / Hygro2 / Puro2 vectors
# Assay: PatchXpress 7000A automated parallel patch-clamp: potentiation of GABA EC20 current in HEK293 cells
# Assay type: cell-based
# Settings: percent increase in mean GABA EC20 current response; HEK293 cells stably expressing rat GABAA α2β2γ2; voltage-clamped at −60 mV
# Protocol: Cell Line Generation and Transient Expression. In order to generate stable clonal lines expressing GABAA configurations containing α2β2γ2 subunits, HEK293 cells were transfected with 2 μg of the subunit, using the Invitrogen Lipofectamine PLUS protocol. The following DNA and vector were used for the stable transfection: α2 subunits in pIRES Neo2, β2 subunit in pIRES Hygro2, and a γ2 subunit in pIRES Puro2. Transfectants were selected with G418, Hygromycin B, and Puromycin antibiotics and cloned by limiting dilution. For transient expression, transfections were performed using the Amaxa transfection protocol and 2 μg DNA of the GABAA receptor subunit using Amaxa transfection protocol. Cells were used for experiments 24-72 hrs post transfection.
# PatchXpress® 7000A Automated Parallel Patch-Clamp System. HEK293 cells stably expressing recombinant the rat GABAA/α2β2γ2 configuration were harvested by a single DPBS wash followed by 0.025% Trypsin-EDTA treatment for one minute at room temperature. A 6-ml cell suspension (1.7×10^5 cells/ml) was centrifuged at 500 rpm for 60 s. The cell pellet was gently agitated, suspended in 150 μl extracellular saline buffer, and transferred to a 1.5-ml tube.
# After manually placing the AVIVA Biosciences SealChip 16™ in the holder of the PatchXpress®, the SealChip16™ was automatically prepared for application of the cells. Intracellular solution containing (in mM) CsCl, 135; EGTA, 11; MgCl2, 1; HEPES, 10; ATP, 5; GTP, 0.3 (pH 7.3 with CsOH, 290-300 mOsmol) was injected into the bottom of each chamber, and extracellular solution containing (in mM) NaCl, 140; KCl, 4; CaCl2, 1.8; MgCl2, 1; glucose, 10; HEPES, 10; ATP-K2, 5 (pH 7.4 with NaOH 305-310 mOsmol) was perfused into the top of the chambers through a 16-nozzle wash station. Throughout this period, the pressure controller maintained a positive pressure (+10 mmHg) from the intracellular side to keep the hole free of debris. Seal formation was achieved by a ramp increase in negative pressure from 0 to −35 mmHg at a rate of −3.5 mmHg/s every 10 s until a giga ohm seal was obtained and verified for 30 s.
# Compounds were prepared from fresh DMSO stock and were transferred to a 96-well disposable glass insert compound plate for placement in the PatchXpress®. A full 10 point concentration-response curve for GABA was obtained for the GABA receptor cell line, from which an EC20 was estimated. Test compounds were assayed for their ability to potentiate the current response by an EC20 concentration of GABA. Each experiment began by two consecutive applications of GABA EC20 alone. Following formation of a giga-ohm seal, patch chambers were perfused with extracellular saline for 60 s to remove excess cells from the well. Cells were then voltage-clamped to −60 mV for the duration of the experiment. After 60 s, 30 μl (10 μl/s over 3 s) of GABA EC20 concentration, which elicited a GABA receptor-mediated inward Cl^− current generally in the order of 200-300 pA in peak amplitude, was added to each chamber. The GABA EC20 concentration was then washed out of the recording chamber after 5 s and washing with extracellular saline was continued for 60 s. After another 60 s, a second GABA EC20 concentration was applied under the same paradigm. […] Following the second GABA EC20 application, the lowest concentration of test compound in the presence of the GABA EC20 concentration was similarly applied. Ascending concentrations of the test compound were applied successively to an individual well in the presence of the GABA EC20 concentration.
# Only cells meeting strict predetermined patch-clamp QC parameters, including seal resistance, membrane resistance, and holding current were included in data analysis. GABA current responses in the presence of test compound were measured and expressed as the mean of the initial control GABA EC20 current responses. The peak current amplitude was measured using DataXpress/pCLAMP9 (Axon Instruments). Linear leak subtraction was performed off-line. […]
# T1 sequence (P23576 29-451): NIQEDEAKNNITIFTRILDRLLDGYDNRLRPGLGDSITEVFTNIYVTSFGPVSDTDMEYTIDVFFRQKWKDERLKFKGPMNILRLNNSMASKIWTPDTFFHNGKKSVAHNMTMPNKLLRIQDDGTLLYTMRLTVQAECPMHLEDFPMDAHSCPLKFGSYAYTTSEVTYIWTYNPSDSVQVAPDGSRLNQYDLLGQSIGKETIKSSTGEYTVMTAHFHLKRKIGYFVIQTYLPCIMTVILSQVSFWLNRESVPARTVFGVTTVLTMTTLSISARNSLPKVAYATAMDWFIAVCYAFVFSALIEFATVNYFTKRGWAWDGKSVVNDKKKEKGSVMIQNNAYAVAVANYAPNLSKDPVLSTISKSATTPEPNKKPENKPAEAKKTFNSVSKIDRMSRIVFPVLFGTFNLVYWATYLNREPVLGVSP
# T1 sequence (P63138 25-474 partner limits assumed): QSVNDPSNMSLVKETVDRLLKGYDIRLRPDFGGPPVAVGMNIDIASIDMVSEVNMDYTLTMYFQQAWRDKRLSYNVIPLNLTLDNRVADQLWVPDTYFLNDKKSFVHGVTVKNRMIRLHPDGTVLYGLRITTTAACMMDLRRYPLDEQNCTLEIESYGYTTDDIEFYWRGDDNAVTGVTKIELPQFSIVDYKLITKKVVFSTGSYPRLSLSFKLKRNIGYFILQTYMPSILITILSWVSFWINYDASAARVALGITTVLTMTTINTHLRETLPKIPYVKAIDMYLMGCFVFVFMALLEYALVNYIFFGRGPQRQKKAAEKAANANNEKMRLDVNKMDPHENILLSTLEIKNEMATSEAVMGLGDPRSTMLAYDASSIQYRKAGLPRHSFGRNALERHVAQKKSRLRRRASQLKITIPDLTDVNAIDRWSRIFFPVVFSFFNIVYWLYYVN
# T1 sequence (P18508 39-466 partner): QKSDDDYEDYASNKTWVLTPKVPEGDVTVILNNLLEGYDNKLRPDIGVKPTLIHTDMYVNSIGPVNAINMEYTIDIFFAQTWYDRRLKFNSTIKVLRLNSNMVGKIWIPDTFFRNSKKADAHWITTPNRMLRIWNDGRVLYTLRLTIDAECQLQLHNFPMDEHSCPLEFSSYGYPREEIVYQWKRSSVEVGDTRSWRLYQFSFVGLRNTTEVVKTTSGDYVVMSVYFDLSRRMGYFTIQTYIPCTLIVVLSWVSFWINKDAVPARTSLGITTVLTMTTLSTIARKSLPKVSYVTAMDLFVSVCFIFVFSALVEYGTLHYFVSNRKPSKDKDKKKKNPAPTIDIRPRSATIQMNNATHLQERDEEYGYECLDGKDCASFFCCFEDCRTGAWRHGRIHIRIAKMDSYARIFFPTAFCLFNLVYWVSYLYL
row,Compound,GABAA α2 EP EMAX (%)
1,"N-Cyclopropyl-8-ethynyl-6-phenyl-4H-benzo[f]imidazo[1,5-a][1,4]diazepine-3-carboxamide [Example 11]",** (300% < Emax < 400 **)

# Same assay, conditions: percent increase in mean GABA EC20 current response; HEK293 cells stably expressing rat GABAA α2β2γ2; voltage-clamped at −60 mV; read-out: GABAA α2 EP EMAX (%)
row,Compound,Emax
1,"C#Cc1ccc2c(c1)C(c1ccccc1)=NCc1c(C(=O)NCCCO)ncn1-2 [Example 29, 8-Ethynyl-N-(3-hydroxypropyl)-6-phenyl-4H-benzo[f]imidazo[1,5-a][1,4]diazepine-3-carboxamide dihydrochloride]",300 to 400%
2,"C#Cc1ccc2c(c1)C(c1ccccc1)=NCc1c(C(=O)NCCCCCO)ncn1-2 [Example 30, 8-Ethynyl-N-(5-hydroxypentyl)-6-phenyl-4H-benzo[f]imidazo[1,5-a][1,4]diazepine-3-carboxamide dihydrochloride]",300 to 400%
3,"C#Cc1ccc2c(c1)C(c1ccccc1)=NCc1c(C(=O)NCCCCO)ncn1-2 [Example 31, 8-Ethynyl-N-(4-hydroxybutyl)-6-phenyl-4H-benzo[f]imidazo[1,5-a][1,4]diazepine-3-carboxamide dihydrochloride]",300 to 400%
4,"C#Cc1ccc2c(c1)C(c1ccccc1)=NCc1c(C(=O)NCCOC(C)=O)ncn1-2 [Example 32, 2-(8-Ethynyl-6-phenyl-4H-benzo[f]imidazo[1,5-a][1,4]diazepine-3-carboxamido)ethyl acetate dihydrochloride]",300 to 400%
5,"C#Cc1ccc2c(c1)C(c1ccccc1)=NCc1c(C(=O)NCC(=O)O)ncn1-2 [Example 33, 2-(8-Ethynyl-6-phenyl-4H-benzo[f]imidazo[1,5-a][1,4]diazepine-3-carboxamido)acetic acid]",400 to 500%
6,"C#Cc1ccc2c(c1)C(c1ccccc1F)=NCc1c(C(=O)NCCOC)ncn1-2 [Example 34, 8-Ethynyl-6-(2-fluorophenyl)-N-(2-methoxyethyl)-4H-benzo[f]imidazo[1,5-a][1,4]diazepine-3-carboxamide dihydrochloride]",300 to 400%
7,"C#Cc1ccc2c(c1)C(c1ccccc1)=NCc1c(C(=O)NCc3ccco3)ncn1-2 [Example 35, 8-Ethynyl-N-(furan-2-ylmethyl)-6-phenyl-4H-benzo[f]imidazo[1,5-a][1,4]diazepine-3-carboxamide, dihydrochloride]",200 to 300%
8,"C#Cc1ccc2c(c1)C(c1ccccc1)=NCc1c(C(=O)NCC3CCCO3)ncn1-2 (stereo not shown) [Example 36, 8-Ethynyl-6-phenyl-N-((tetrahydrofuran-2-yl)methyl)-4H-benzo[f]imidazo[1,5-a][1,4]diazepine-3-carboxamide, dihydrochloride]",300 to 400%
9,"C#Cc1ccc2c(c1)C(c1ccccn1)=NCc1c(C(=O)NCCOC)ncn1-2 [Example 37, 8-Ethynyl-N-(2-methoxyethyl)-6-(pyridin-2-yl)-4H-benzo[f]imidazo[1,5-a][1,4]diazepine-3-carboxamide]",200 to 300%
